Test in all cases: CDK Kinase Inhibition Assay
For assay [1], the target named is Cyclin-dependent kinase 4/G1/S-specific cyclin-D1 (Homo sapiens, UniProt P11802). Particulars: pH 7; 22 °C. The method, then: (§1) In vitro CDK assay using purified enzyme, was incubated at room temperature with substrate, and test compounds in the presence of ATP/[gamma-33P]ATP. 33P incorporation was measured with a Top Count (Packard). IC50 is the inhibitor concentration which inhibits 50% of kinase activity that catalyzes the transfer of the terminal phosphate from 33P labeled ATP to the substrate.
Cyclin-dependent kinase 4/G1/S-specific cyclin-D1, sequence (P11802 whole entry): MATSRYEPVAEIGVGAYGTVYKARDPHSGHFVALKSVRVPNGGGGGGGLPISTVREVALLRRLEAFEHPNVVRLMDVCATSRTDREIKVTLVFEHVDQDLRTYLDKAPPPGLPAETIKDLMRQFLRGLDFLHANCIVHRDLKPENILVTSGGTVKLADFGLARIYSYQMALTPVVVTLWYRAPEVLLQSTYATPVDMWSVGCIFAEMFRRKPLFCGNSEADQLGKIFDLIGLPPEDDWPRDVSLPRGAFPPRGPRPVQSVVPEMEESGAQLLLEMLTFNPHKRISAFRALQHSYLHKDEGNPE
Cyclin-dependent kinase 4/G1/S-specific cyclin-D1, sequence (P24385 whole entry, further chain): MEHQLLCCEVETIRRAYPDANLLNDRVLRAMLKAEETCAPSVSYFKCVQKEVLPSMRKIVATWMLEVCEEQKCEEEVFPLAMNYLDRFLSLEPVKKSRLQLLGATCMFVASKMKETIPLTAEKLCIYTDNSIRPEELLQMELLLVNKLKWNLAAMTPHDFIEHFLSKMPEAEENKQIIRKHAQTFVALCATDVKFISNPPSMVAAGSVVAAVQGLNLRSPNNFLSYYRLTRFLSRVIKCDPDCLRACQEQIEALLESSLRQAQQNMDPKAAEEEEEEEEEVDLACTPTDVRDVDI

The target of assay [2] is Cyclin-dependent kinase 2/G1/S-specific cyclin-E1 (Homo sapiens, UniProt P24941). Particulars: 25 °C. The procedure: as §1
In assay [3] the target is cAMP-dependent protein kinase catalytic subunit alpha (Bos taurus, UniProt P00517). Particulars: 25 °C.

Results on eleven compounds are retold here after BindingDB's records for doi:10.1016/j.bmcl.2004.05.088 (Eli Lilly, 2004).

Counter-ions that a name gives are not always drawn.

By IC50 is commonly meant the point on the concentration scale where inhibition reaches its midpoint. The low end stands for inhibition by little substance, the high end for a need for much substance. With `O=C1NC(=O)c2c1c1c3ccccc3[nH]c1c1c2c2cccc3c2n1CCNC3` [1,4,14,24-tetraazaheptacyclo[16.8.1.0^{2,17}.0^{3,11}.0^{5,10}.0^{12,16}.0^{22,27}]heptacosa-2(17),3(11),5(10),6,8,12(16),18(27),19,21-nonaene-13,15-dione hydrochloride], the IC50 was 27 nM in assay [1] and 38 nM in assay [2].

Consider `O=C1NC(=O)c2c1c1c3ccccc3[nH]c1c1c2c2cccc3c2n1CCNCC3` [1,4,14,25-tetraazaheptacyclo[16.9.1.0^{2,17}.0^{3,11}.0^{5,10}.0^{12,16}.0^{22,28}]octacosa-2(17),3(11),5(10),6,8,12(16),18(28),19,21-nonaene-13,15-dione hydrochloride], for which half-maximal inhibition in assay [1] (IC50) was put at 160 nM.

`O=C1NC(=O)c2c1c1c3ccc(C(F)(F)F)c(CO)c3[nH]c1c1c2c2cccc3c2n1CCNC3` [6-(hydroxymethyl)-7-(trifluoromethyl)-1,4,14,24-tetraazaheptacyclo[16.8.1.0^{2,17}.0^{3,11}.0^{5,10}.0^{12,16}.0^{22,27}]heptacosa-2(17),3(11),5(10),6,8,12(16),18(27),19,21-nonaene-13,15-dione hydrochloride] gave an IC50 in assay [1] of 44 nM.

Regarding `O=C1NC(=O)c2c1c1c3cc(F)c(F)cc3[nH]c1c1c2c2cccc3c2n1CCNC3` [7,8-difluoro-1,4,14,24-tetraazaheptacyclo[16.8.1.0^{2,17}.0^{3,11}.0^{5,10}.0^{12,16}.0^{22,27}]heptacosa-2(17),3(11),5(10),6,8,12(16),18(27),19,21-nonaene-13,15-dione hydrochloride], the IC50 in assay [3] is > 2000 nM; in assay [1], 110 nM.

As for `O=C1NC(=O)c2c1c1c3ccc(C(F)(F)F)cc3[nH]c1c1c2c2cccc3c2n1CCNC3` [7-(trifluoromethyl)-1,4,14,24-tetraazaheptacyclo[16.8.1.0^{2,17}.0^{3,11}.0^{5,10}.0^{12,16}.0^{22,27}]heptacosa-2(17),3(11),5(10),6,8,12(16),18(27),19,21-nonaene-13,15-dione hydrochloride], the values for the IC50 in assay [3] and in assay [1] were > 2000 nM and 69 nM, respectively.

As to `O=C1NC(=O)c2c1c1c3ccc(F)cc3[nH]c1c1c2c2cccc3c2n1CCNC3` [7-fluoro-1,4,14,24-tetraazaheptacyclo[16.8.1.0^{2,17}.0^{3,11}.0^{5,10}.0^{12,16}.0^{22,27}]heptacosa-2(17),3(11),5(10),6,8,12(16),18(27),19,21-nonaene-13,15-dione hydrochloride], the IC50 in assay [2] is 16 nM.

Consider `O=C1NC(=O)c2c1c1c3cc(F)ccc3[nH]c1c1c2c2cccc3c2n1CCNC3` [8-fluoro-1,4,14,24-tetraazaheptacyclo[16.8.1.0^{2,17}.0^{3,11}.0^{5,10}.0^{12,16}.0^{22,27}]heptacosa-2(17),3(11),5(10),6,8,12(16),18(27),19,21-nonaene-13,15-dione hydrochloride], for which, in assay [1], the IC50 is 34 nM.

Turning to `NCC(=O)N1CCn2c3c(cccc3c3c4c(c5c6ccccc6[nH]c5c32)C(=O)NC4=O)C1` [24-(2-aminoacetyl)-1,4,14,24-tetraazaheptacyclo[16.8.1.0^{2,17}.0^{3,11}.0^{5,10}.0^{12,16}.0^{22,27}]heptacosa-2(17),3(11),5(10),6,8,12(16),18(27),19,21-nonaene-13,15-dione hydrochloride], the IC50 is > 2000 nM in assay [3] and 100 nM in assay [1].

For the compound `CC(C)N1CCn2c3c(cccc3c3c4c(c5c6ccccc6[nH]c5c32)C(=O)NC4=O)C1` [24-(propan-2-yl)-1,4,14,24-tetraazaheptacyclo[16.8.1.0^{2,17}.0^{3,11}.0^{5,10}.0^{12,16}.0^{22,27}]heptacosa-2(17),3(11),5(10),6,8,12(16),18(27),19,21-nonaene-13,15-dione], the IC50 in assay [3] is > 2000 nM; in assay [1], 78 nM.

Consider `Cn1cnc(S(=O)(=O)N2CCn3c4c(cccc4c4c5c(c6c7ccccc7[nH]c6c43)C(=O)NC5=O)C2)c1` [24-[(1-methyl-1H-imidazole-4-)sulfonyl]-1,4,14,24-tetraazaheptacyclo[16.8.1.0^{2,17}.0^{3,11}.0^{5,10}.0^{12,16}.0^{22,27}]heptacosa-2(17),3(11),5(10),6,8,12(16),18(27),19,21-nonaene-13,15-dione], for which the IC50 in assay [3] was > 2000 nM; in assay [1], 120 nM.

On to `CS(=O)(=O)N1CCn2c3c(cccc3c3c4c(c5c6ccccc6[nH]c5c32)C(=O)NC4=O)C1` [24-methanesulfonyl-1,4,14,24-tetraazaheptacyclo[16.8.1.0^{2,17}.0^{3,11}.0^{5,10}.0^{12,16}.0^{22,27}]heptacosa-2(17),3(11),5(10),6,8,12(16),18(27),19,21-nonaene-13,15-dione], for which the IC50 in assay [3] is > 2000 nM; in assay [1], 53 nM.
